Consider 85 compounds from PubChem BioAssay AID1320 (NMMLSC, 2008).

Active and inactive are the calls of the source. No rule for the calls is given here.

The first test deals with Bcl-2-related protein A1 (Homo sapiens) (UniProt Q16548). Put plainly: Bfl-1/Bim complex disruptors – biochemical, multiplexed, bead-based flow cytometry, dose response (AID 1320). As to percent span (inhibition): test concentration not given here. To be noted: Bim peptide-Bfl-1 binding, fluorescence. (In general: A flow cytometer gives signals particle by particle.)
Sequence of Bcl-2-related protein A1 (Homo sapiens) (Q16548 whole entry, looked up): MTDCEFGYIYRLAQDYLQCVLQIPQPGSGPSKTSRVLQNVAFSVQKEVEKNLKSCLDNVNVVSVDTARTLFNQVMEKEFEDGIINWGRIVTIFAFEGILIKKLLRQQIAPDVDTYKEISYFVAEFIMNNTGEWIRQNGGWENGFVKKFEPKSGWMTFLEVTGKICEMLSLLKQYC
As a reminder, the EC50 is the midpoint of the concentration-response curve. On to `O=[N+]([O-])c1ccc(N/N=C/c2ccc(O)c(O)c2O)c(S(=O)(=O)N2CCOCC2)c1`, for which the concentration for a half-maximal effect (EC50) is 4.48 µM.

For the compound `Fc1ccc(/C=C2\CCCC3=C2NC(=S)NC3c2ccc(F)cc2)cc1` (stereo not given), the EC50 entry was “inactive”.

Turning to `Clc1ccc2c(N/N=C/c3ccccc3Br)ccnc2c1`, the EC50 entry is “inactive”.

The same test, now with this note: Bim peptide-Bfl-1 binding, fluorescence, stronger effect = higher value.
In the case of `CCCC1(C(=O)OCC)NC(c2cc(OC)c(OC)c(OC)c2)C2C(=O)N(CC)C(=O)C21` (stereo not given), the “percent span (inhibition)” value is “inactive”.

`CN(C)c1cccc(NC(=O)C2(C)CC2(Cl)Cl)c1` (stereo not given): the “percent span (inhibition)” value is “inactive”.

Regarding `COc1ccc(NC(=O)/C(C#N)=C/c2c(C)nn(-c3ccc(F)cc3)c2Cl)cc1Cl`, the “percent span (inhibition)” value is “inactive”.

Consider `Cc1nnc2ccc(-c3cccc(NC(=O)c4ccco4)c3)nn12`, for which the “percent span (inhibition)” value is “inactive”.

On to `CCNCc1cc(Br)c(OCC(=O)Nc2ccccc2)c(OC)c1`, for which the “percent span (inhibition)” value is “inactive”.

As for `CCn1c(C)nc2cc(C(=O)N/N=C/c3ccc(O)c(O)c3O)ccc21`, the “percent span (inhibition)” value is “inactive”.

Turning to `O=C1c2ccccc2C(=O)c2cc(S(=O)(=O)Nc3ccccc3)ccc21`, the “percent span (inhibition)” value was “inactive”.

Regarding `COc1ccc(N2CCN(CCCNC(=O)CCCn3c(=O)[nH]c4ccsc4c3=O)CC2)cc1`, the “percent span (inhibition)” value was “inactive”.

`Cc1cccc(Nc2nc(-c3ccncc3)cs2)c1`: the “percent span (inhibition)” value was “inactive”.

For `COc1cc(/C=C2\S/C(=N/S(=O)(=O)c3ccccc3)NC2=O)c([N+](=O)[O-])cc1OC`, the “percent span (inhibition)” value is “inactive”.

Regarding `O=C(Cn1c(-c2ccccc2)noc1=O)N1CCC(Cc2ccccc2)CC1`, the “percent span (inhibition)” value is “inactive”.

`O=C(Nc1n[nH]c(C(F)(F)F)n1)C1CC1`: the “percent span (inhibition)” value is “inactive”.

As for `Cc1ccc(NC(=O)CC2S/C(=N/N=C/c3c[nH]c4ccccc34)NC2=O)cc1` (stereo not given), the “percent span (inhibition)” value is “inactive”.

As to `Cc1ccc(C(=O)N/N=C2/NC(=O)CC(C(=O)Nc3ccccc3)S2)cc1` (stereo not given), the “percent span (inhibition)” value was “inactive”.

For the compound `COc1cc(/C=C2\S/C(=N/S(=O)(=O)c3ccc(C)cc3)NC2=O)c([N+](=O)[O-])cc1OC`, the “percent span (inhibition)” value was “inactive”.

With `Cc1noc(C)c1COc1ccc(C(=O)Nc2cccnc2)cc1`, the “percent span (inhibition)” value is “inactive”.

On to `O=C1c2ccccc2C(=O)N1CN(C(=O)COc1ccc(Cl)cc1Cl)c1cccc(F)c1`, for which the “percent span (inhibition)” value is “inactive”.

For `CC1CC2=C(NC(=S)NC2c2ccccc2F)/C(=C/c2ccccc2F)C1` (stereo not given), the “percent span (inhibition)” value was “inactive”.

As to `O=C(Nc1cccc(Cl)c1)Nc1ccc(Cl)cn1`, the “percent span (inhibition)” value is “inactive”.

As for `COc1ccc(Cl)cc1-n1c(C)cc(C=O)c1C`, the “percent span (inhibition)” value is “inactive”.

On to `Cn1c(N)c(C(=O)COC(=O)c2cc(-c3ccco3)nc3ccccc23)c(=O)n(Cc2ccccc2)c1=O`, for which the “percent span (inhibition)” value is “inactive”.

Take `CC(=O)Nc1ccc(NC2=C(Cl)C(=O)c3ccccc3C2=O)cc1`: the “percent span (inhibition)” value is “inactive”.

With `Cc1nc(NC(=O)CC(C)C)sc1-c1csc(Nc2ccc(Cl)cc2)n1`, the “percent span (inhibition)” value is “inactive”.

As for `Cc1ccc(NC(=S)N2CCn3cccc3C2c2cccnc2)cc1` (stereo not given), the “percent span (inhibition)” value is “inactive”.

In the case of `CCN(CC)c1ccc(NC(=O)COc2ccccc2C#N)cc1S(=O)(=O)Nc1ccccc1OC`, the “percent span (inhibition)” value was “inactive”.

Regarding `C/C(=N\NC(=O)COc1ccc(C#N)cc1)c1ccccc1OC(F)F`, the “percent span (inhibition)” value was “inactive”.

Turning to `CC(C)(C)C(=O)NC(NC(=S)Nc1ccc(S(N)(=O)=O)cc1)C(Cl)(Cl)Cl` (stereo not given), the “percent span (inhibition)” value is “inactive”.

For the compound `N#C/C(=C(/O)CN1CCN(c2ccccc2F)CC1)c1nc(-c2ccccc2)cs1`, the “percent span (inhibition)” value is “inactive”.

Consider `O=C(CCc1ccccc1)N1CCN(c2ccccn2)CC1`, for which the “percent span (inhibition)” value is “inactive”.

On to `COc1cc(/C=C2/NC(=O)N(Cc3ccccc3F)C2=O)cc(OC)c1O`, for which the “percent span (inhibition)” value was “inactive”.

As for `CN1C2C=C3C(C#N)=C(N)C(C#N)(C#N)[C@@H](c4ccsc4)[C@@H]3C1CC2` (stereo not given in full), the “percent span (inhibition)” value is “inactive”.

Take `Cc1cc(NC(=O)CCCC(=O)N(CC(=O)NC2CCCCC2)c2ccccc2)no1`: the “percent span (inhibition)” value was “inactive”.

Take `COc1cccc(C(=O)/C=C/Nc2ccc(S(=O)(=O)Nc3onc(C)c3C)cc2)c1`: the “percent span (inhibition)” value was “inactive”.

Regarding `CCOC(=O)c1nc(Nc2ccc(Nc3ccccc3)cc2)c2ccccc2n1`, the “percent span (inhibition)” value is “inactive”.

With `CCOc1cc(/C=N/NC(=O)c2cccs2)cc([N+](=O)[O-])c1O`, the “percent span (inhibition)” value was “inactive”.

For the compound `Cn1c(CCNC(=O)C2CCCCC2)nc2cc(NC(=O)c3cccs3)ccc21`, the “percent span (inhibition)” value is “inactive”.

For the compound `O=C1CCc2cc(S(=O)(=O)NCCCC(=O)N3CCN(Cc4ccc5c(c4)OCO5)CC3)ccc2N1`, the “percent span (inhibition)” value is “inactive”.

`Cc1nonc1NC(=O)CSc1nnc(-c2ccoc2C)n1C`: the “percent span (inhibition)” value was “inactive”.

On to `Cn1c(=O)c(C(=O)COC(=O)c2cc(-c3ccco3)nc3ccccc23)c(N)n(CC2CC2)c1=O`, for which the “percent span (inhibition)” value was “inactive”.

`Fc1ccc(C2=Nn3c(Cc4ccccc4F)nnc3SC2)cc1`: the “percent span (inhibition)” value is “inactive”.

For the compound `COc1ccc(Cc2c(O)nc(SC)n(C(C)=O)c2=O)cc1`, the “percent span (inhibition)” value was “inactive”.

For the compound `COc1ccccc1N(C)S(=O)(=O)c1ccc(C(=O)OCC(N)=O)cc1`, the “percent span (inhibition)” value was “inactive”.

As to `Cc1cc(C)nc(/N=c2/ssnc2Cl)c1`, the “percent span (inhibition)” value was “inactive”.

Regarding `O=C(N/N=C/c1cccnc1)c1cccc(S(=O)(=O)N2CCCC2)c1`, the “percent span (inhibition)” value was “inactive”.

With `CCOc1ccc2nc(SCC(=O)N3c4ccccc4Sc4ccccc43)c(C#N)cc2c1`, the “percent span (inhibition)” value was “inactive”.

With `COc1ccc(-c2nnc(SCC(=O)Nc3nc4ccccc4s3)n2C)cc1`, the “percent span (inhibition)” value was “inactive”.

For the compound `CN(CC(=O)O/N=C(\N)c1ccc([N+](=O)[O-])cc1)S(=O)(=O)c1ccccc1`, the “percent span (inhibition)” value is “inactive”.

On to `O=C(COc1ccc(Br)cc1CNC1CCCCC1)NCCc1ccccc1`, for which the “percent span (inhibition)” value was “inactive”.

Turning to `Cc1ccc(Nc2nc(CSc3nnc(-c4cccnc4)n3-c3ccccc3C)cs2)cc1`, the “percent span (inhibition)” value is “inactive”.

With `COc1ccccc1NC(=O)CSc1ncn(-c2ccccc2)n1`, the “percent span (inhibition)” value is “inactive”.

In the case of `c1ccc(-c2nc(N3CCCCCC3)c3ccccc3n2)nc1`, the “percent span (inhibition)” value was “inactive”.

Consider `Cc1cc(NC(=O)CCSc2ccccc2)ccc1Br`, for which the “percent span (inhibition)” value is “inactive”.

Consider `COc1cc(NC(=O)c2ccc3c(c2)OCO3)ccc1NC(=O)c1ccco1`, for which the “percent span (inhibition)” value is “inactive”.

With `CCOCCCn1c(N)c(C(=O)Nc2sc3c(c2C(=O)OC)CCCC3)c2nc3ccccc3nc21`, the “percent span (inhibition)” value is “inactive”.

Regarding `Clc1nssc1=Nc1ccccc1`, the “percent span (inhibition)” value is “inactive”.

Take `CN1CCS/C1=C/C=C1/SC(=S)N(Cc2ccccc2)C1=O`: the “percent span (inhibition)” value is “inactive”.

Consider `Cc1cc2nc(/C(C#N)=C/c3ccncc3)[nH]c2cc1C`, for which the “percent span (inhibition)” value was “inactive”.

For `CCN1CCN(c2ccc(NC(=O)c3cccc4ncccc34)cc2)CC1`, the “percent span (inhibition)” value is “inactive”.

Turning to `COc1ccc(OC)c(NC(=O)COC(=O)c2cc3c(s2)CCC3)c1`, the “percent span (inhibition)” value is “inactive”.

In the case of `Cc1ccc(-n2[nH]c(C)c(/C=N/Nc3ccc([N+](=O)[O-])cc3[N+](=O)[O-])c2=O)cc1C`, the “percent span (inhibition)” value is “inactive”.

As for `Cc1ccc2cc(C)c(Sc3nnnn3-c3ccccc3)nc2c1`, the “percent span (inhibition)” value is “inactive”.

In the case of `CSc1ccccc1NC(=O)CN(C)CC(=O)Nc1ccc(N2CCOCC2)cc1`, the “percent span (inhibition)” value is “inactive”.

Turning to `CN(C)S(=O)(=O)N(CC(=O)Nc1ccccc1C(F)(F)F)c1ccccc1`, the “percent span (inhibition)” value was “inactive”.

`COc1ccc(C2CN(C)CC2C(=O)c2ccc(F)cc2)cc1Cl` (stereo not given): the “percent span (inhibition)” value is “inactive”.

`COc1c(C)cc(Br)cc1C(=O)Nc1ccc(S(N)(=O)=O)cc1`: the “percent span (inhibition)” value was “inactive”.

For `Cc1ccc(C(=O)CCC(=O)Nc2ccc(Cl)c(S(=O)(=O)Nc3cccc(Cl)c3)c2)cc1`, the “percent span (inhibition)” value was “inactive”.

Take `CC1=CC(=O)c2ccccc2C1=O`: the “percent span (inhibition)” value is “inactive”.

Consider `Cc1cc(Cl)ccc1N=c1ssnc1Cl`, for which the “percent span (inhibition)” value was “inactive”.

Take `Cc1ccc(NC(=O)c2cc(S(=O)(=O)NCCC3=CCCCC3)ccc2F)cc1F`: the “percent span (inhibition)” value was “inactive”.

For `COc1ccc(C)cc1Nc1ccc(C(=O)O)cc1[N+](=O)[O-]`, the “percent span (inhibition)” value was “inactive”.

As to `COc1ccc(C(=O)NC(=S)N2CCNC(=O)C2)cc1Br`, the “percent span (inhibition)” value was “inactive”.

Regarding `CCCn1c(N2CCN(C)CC2)nc2c1c(=O)[nH]c(=O)n2C`, the “percent span (inhibition)” value is “inactive”.

As for `Cc1ccc(OCc2cn3cccnc3n2)cc1`, the “percent span (inhibition)” value is “inactive”.

`COc1cccc(N2CC(C(=O)Nc3nnc(SCC(=O)c4ccccc4)s3)CC2=O)c1` (stereo not given): the “percent span (inhibition)” value was “inactive”.

On to `COc1ccc(N2C(=O)C(Cl)=C(Nc3ccccc3O)C2=O)cc1`, for which the “percent span (inhibition)” value is “inactive”.

Regarding `Cc1[nH]n(C(N)=S)c(=O)c1N=Nc1ccc(S(=O)(=O)N2CCCCCC2)cc1`, the “percent span (inhibition)” value was “inactive”.

Take `O=C(CSc1nnc(-c2ccco2)n1Cc1ccccc1)c1ccccc1`: the “percent span (inhibition)” value is “inactive”.

Consider `CCOC(=O)c1c(NC(=O)c2ccccc2N(C)S(=O)(=O)c2ccccc2)sc2c1CCCC2`, for which the “percent span (inhibition)” value is “inactive”.

Turning to `O=C(c1cccc(Br)c1)N1CCN(c2cnn(-c3ccccc3)c(=O)c2Cl)CC1`, the “percent span (inhibition)” value was “inactive”.

As for `Cc1ccc(NC(=O)CSc2nc3ccccc3c(=O)n2CCCN2CCCCC2)cc1Cl`, the “percent span (inhibition)” value is “inactive”.

Turning to `Cc1ccc(N=Cc2c(O)n(-c3ccc4c(c3)OCO4)c(=O)c3ccccc23)cc1`, the “percent span (inhibition)” value was “inactive”.

`Fc1cccc(Nc2nc(-c3ccncc3)nc3ccccc23)c1`: the “percent span (inhibition)” value was “inactive”.
